# Data: article PMC6222633, “Preclinical Pharmacokinetics of Scoparone, Geniposide and Rhein in an Herbal Medicine Using a Validated LC-MS/MS Method” (Molecules : A Journal of Synthetic Chemistry and Natural …, 2018)
# Where two headings read alike, the source gives them in different places.
# Tests used:
# [1] = Pharmacokinetics of scoparone, geniposide and rhein in rat plasma after oral administration of the herbal formula Yin-Chen-Hao-Tang (UPLC-MS/MS); format: in vivo, Male Sprague Dawley rats
# Method: All samples were subjected to chromatographic separation using the Shimadzu UPLC system with an Acquity UPLC BEH C18 column (1.7 µm, 100 mm × 2.1 mm) (Waters Corp., Milford, MA, USA). Samples were maintained in the autosampler at 4 °C with […] of each being injected into the column. Chromatographic separations were conducted at 35 °C with a flow rate of 0.2 mL/min. The mobile phase was 1 mM ammonium acetate with 0.1% formic acid and methanol. A gradient elution was used from 20% methanol (0–2 min) to 95% methanol (3–11 min) then decreased to 20% methanol at 12 min. The overall run time is 20 mins. MRM transitions were scoparone (m/z 207 → 151), geniposide (m/z 406 → 227), rhein (m/z 283 → 240) and carbamazepine (m/z 237 → 194) for quantitation. Data acquisition was controlled with LabSolutions v. 5.60 SP1 software (Shimadzu, Kyoto, Japan).
# Sample preparations were made using the protein precipitation process. A forty-five-microliter aliquot of blank plasma sample was mixed with 5 µL of internal standard solution and 100 μL […] was added. The mixture was vortexed for 5 min and centrifuged at 16,000× g for 10 min at 4 °C. The supernatant layer was then collected and transferred through a 0.22 μm membrane filter (0.22 μm, Millex-GV, Millipore, USA) to 1.5 mL autosampler vials. Finally, 20 µL was used for injection into the UPLC-MS/MS system.
# Male Sprague Dawley rats weighing 230 ± 30 g were used for the following pharmacokinetic (PK) study. The rats were housed under controlled environmental conditions with free access to food and drinking water up to 12 h prior to experiments. The experimental protocol was approved by the Institutional Animal Ethics Committee of National Yang-Ming University, Taipei, Taiwan (IACUC1070112). All rats divided into two experimental groups were intragastrically fed pharmaceutical herbal product formula Yin-Chen-Hao Tang suspended in normal saline at 1 g/kg or 3 g/kg corresponding to the clinical daily dose of 9.7 g and 29.2 g in a 60 kg adult. Blood samples were collected via a polyethylene tubing (PE-50) implanted priory in the jugular vein of each rat in a heparin-rinsed vial. An aliquot of 100–120 µL blood was collected at time intervals of 0, 5, 15, 30, 60, 90, 120, 180, 240, 300 and 360 min after oral administration of the herbal product. Each group contained a total of six rats to diminish individual variation. All blood samples were immediately centrifuged as mentioned above (16,000× g for 10 min at 4 °C) and stored at −20 °C until analysis.
# The pharmacokinetic parameters were calculated using the pharmacokinetic software WinNonlin Standard Edition, version 1.1 (Scientific Consulting Inc., Apex, NC, USA). The area under the plasma concentration-time curve (AUC), terminal elimination half-life (t1/2) and oral clearance (CL) were estimated using non-compartmental analysis. The maximum plasma concentration (Cmax) and time to reach the maximum concentration (Tmax) was directly applied from the plasma concentration-time curve. Pharmacokinetic parameters of each individual data set were calculated using WinNonlin Standard Edition, version 1.1 (Pharsight Corp., Mountain View, CA, USA). Statistics and graphics were performed with SPSS version 18.0 (SPSS Inc., Chicago, IL, USA) and SigmaPlot 10.0 software (Systat Software Inc., San Jose, CA, USA). All values were expressed as the mean ± standard deviation (S.D.).
# [2] = parameters: method as in PMID 21945452; conditions: oral administration of 50–200 mg of rhein, healthy Chinese subjects; cited from earlier work
# [3] = rat plasma, YCHT 3 g/kg p.o., mean ± S.D., n = 6
# [4] = rat plasma, YCHT 3 g/kg vs 1 g/kg p.o.
# [5] = male, Sprague Dawley, rat, in vivo
# [6] = male, Sprague Dawley, rat, in vivo, po, 1 g/kg
# [7] = male, Sprague Dawley, rat, in vivo, po, 3 g/kg
"increase of AUC in the 3 g/kg group compared to the 1 g/kg group [1, 5] [fold]","ratio of AUC adjusted to the administered dose, high-dose group vs low-dose group [1, 5] [times]","AUC [1, 6] [ng·h/mL]","CL (clearance) [1, 6] [mL/min/kg]","Cmax [1, 6] [ng/mL]","MRT [1, 6] [h]","Tmax [1, 6] [h]","half-life [1, 6] [h]","AUC [1, 7] [ng·h/mL]","AUC/dose [1, 7]","CL (clearance) [1, 7] [mL/min/kg]","Cmax [1, 7] [ng/mL]","MRT [1, 7] [h]","Tmax [1, 7] [h]","half-life [1, 7] [h]",Compound,also measured
,,,,,,,,,,,,,,,"COC(=O)C1=CO[C@@H](O[C@@H]2O[C@H](CO)[C@@H](O)[C@H](O)[C@H]2O)[C@@H]2C(CO)=CC[C@H]12 [Geniposide, geniposide]","AUC ([1]; male, Sprague Dawley, in vivo, po, rat plasma, YCHT 1 g/kg p.o., mean ± S.D., n = 6, read-out: AUC (converted)): 313 ng·h/mL; Cmax ([1]; male, Sprague Dawley, in vivo, po, rat plasma, YCHT 1 g/kg p.o., mean ± S.D., n = 6, read-out: Cmax): 145 ± 251 ng/mL; MRT ([1]; male, Sprague Dawley, in vivo, po, rat plasma, YCHT 1 g/kg p.o., mean ± S.D., n = 6, read-out: MRT (mean retention time) (converted)): 1.92 h; Tmax ([1]; male, Sprague Dawley, in vivo, po, rat plasma, YCHT 1 g/kg p.o., mean ± S.D., n = 6, read-out: Tmax (converted)): 1.35 h; half-life ([1]; male, Sprague Dawley, in vivo, po, rat plasma, YCHT 1 g/kg p.o., mean ± S.D., n = 6, read-out: t1/2 (elimination half-life)): 1.33 ± 0.3 h; AUC ([1]; male, Sprague Dawley, in vivo, po, rat plasma, YCHT 3 g/kg p.o., mean ± S.D., n = 6, read-out: AUC (converted)): 1580 ng·h/mL; Cmax ([1]; male, Sprague Dawley, in vivo, po, rat plasma, YCHT 3 g/kg p.o., mean ± S.D., n = 6, read-out: Cmax): 604 ± 256 ng/mL; MRT ([1]; male, Sprague Dawley, in vivo, po, rat plasma, YCHT 3 g/kg p.o., mean ± S.D., n = 6, read-out: MRT (mean retention time) (converted)): 2.53 h; Tmax ([1]; male, Sprague Dawley, in vivo, po, rat plasma, YCHT 3 g/kg p.o., mean ± S.D., n = 6, read-out: Tmax (converted)): 1.35 h; half-life ([1]; male, Sprague Dawley, in vivo, po, rat plasma, YCHT 3 g/kg p.o., mean ± S.D., n = 6, read-out: t1/2 (elimination half-life)): 1.43 ± 0.483 h; concentration at 180 min ([1]; male, Sprague Dawley, rat, in vivo, typical plasma sample collected 180 min after oral YCHT 3 g/kg): 287 ng/mL; CL (clearance) ([1]; rat plasma, YCHT 1 g/kg p.o., mean ± S.D., n = 6): 1403 ± 1018 mL/min/kg; AUC/dose [1, 3]: 31.63 ± 10.76; CL (clearance) [1, 3]: 259.8 ± 109.2 mL/min/kg; increase of AUC in the 3 g/kg group compared to the 1 g/kg group [1, 4]: 5.1 fold; ratio of AUC adjusted to the administered dose, high-dose group vs low-dose group [1, 4]: 1.7 times"
6.8,2.3,485,3.710 ± 1.366,311 ± 166,1.77,0.2,2.02 ± 0.767,3310,66.18 ± 17.09,1.483 ± 0.357,1660 ± 805,1.93,0.383,1.73 ± 1.15,"O=C(O)c1cc(O)c2c(c1)C(=O)c1cccc(O)c1C2=O [Rhein, rhein]","pharmacokinetics, dose linearity [2]: Linear pharmacokinetics"
7.5,2.5,15.9,394.7 ± 209.4,18 ± 12,0.317,0.233,0.433 ± 0.0833,119,2.374 ± 1.126,131.5 ± 123.6,132 ± 137,0.85,0.35,1.15 ± 0.917,"COc1cc2ccc(=O)oc2cc1OC [Scoparone, 6,7-dimethoxycoumarin]",
